Experimental findings from ChEMBL document CHEMBL3638462, “Pyridine and pyrimidine derivatives as phosphodiesterase 10 inhibitors” (2014) are described below.

Several values for one entry are separate records, joined by “and”; a condition that tells them apart may be missing. Equal entries are not always repeated.

For the assay, the target named is cAMP and cAMP-inhibited cGMP 3',5'-cyclic phosphodiesterase 10A (Homo sapiens, UniProt Q9Y233). The experiment in a line: Enzyme Inhibition Assay: To check the inhibition profile, 5 μL of serial diluted compounds were incubated with 5 μL of diluted PDE10 enzyme (BPS Bioscience, San Diego, Calif.) or tissue homogenate in a 384-well polystyrene assay plate (Corning, Corning, N.Y.) for 30 min at room temperature. After incubation, 10 μL of diluted fluorescein labeled cAMP or cGMP substrate were added and incubated for 60 min at room temperature. The reaction was stopped by adding 60 μL of diluted binding reagents and plates were read on an Envision (Perkin Elmer, Waltham, Mass.) for time resolved fluorescence resonance energy transfer. The data were analyzed with GraphPad Prism (La Jolla, Calif.).
Chain of cAMP and cAMP-inhibited cGMP 3',5'-cyclic phosphodiesterase 10A (Q9Y233 whole entry): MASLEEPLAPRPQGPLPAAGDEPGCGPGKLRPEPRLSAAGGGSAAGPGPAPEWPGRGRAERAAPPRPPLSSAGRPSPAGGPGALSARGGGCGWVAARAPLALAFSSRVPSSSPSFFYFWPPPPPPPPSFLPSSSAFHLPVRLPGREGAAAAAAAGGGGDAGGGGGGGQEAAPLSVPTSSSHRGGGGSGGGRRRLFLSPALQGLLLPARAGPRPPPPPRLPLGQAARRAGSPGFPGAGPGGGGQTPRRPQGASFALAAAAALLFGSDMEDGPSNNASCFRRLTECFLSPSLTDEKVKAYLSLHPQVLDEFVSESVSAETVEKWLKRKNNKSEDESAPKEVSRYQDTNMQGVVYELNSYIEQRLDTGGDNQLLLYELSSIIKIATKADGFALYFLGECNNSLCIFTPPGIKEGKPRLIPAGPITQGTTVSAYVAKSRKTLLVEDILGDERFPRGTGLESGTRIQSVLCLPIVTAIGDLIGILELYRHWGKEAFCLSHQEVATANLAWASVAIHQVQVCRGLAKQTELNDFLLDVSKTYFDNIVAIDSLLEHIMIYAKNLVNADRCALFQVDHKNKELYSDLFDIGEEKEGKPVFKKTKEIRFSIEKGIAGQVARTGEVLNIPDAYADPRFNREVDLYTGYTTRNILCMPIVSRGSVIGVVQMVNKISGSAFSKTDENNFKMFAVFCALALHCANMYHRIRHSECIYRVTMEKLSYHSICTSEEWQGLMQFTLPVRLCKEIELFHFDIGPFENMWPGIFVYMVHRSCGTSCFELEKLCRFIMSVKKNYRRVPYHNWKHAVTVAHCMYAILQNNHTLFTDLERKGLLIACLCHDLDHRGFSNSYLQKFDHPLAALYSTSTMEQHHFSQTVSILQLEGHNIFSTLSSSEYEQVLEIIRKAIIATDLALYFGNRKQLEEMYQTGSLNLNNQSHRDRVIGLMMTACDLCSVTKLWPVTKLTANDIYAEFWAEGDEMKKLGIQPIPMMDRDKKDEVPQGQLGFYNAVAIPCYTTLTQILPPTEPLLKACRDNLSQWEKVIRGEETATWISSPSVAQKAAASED
Regarding `O=C(c1ccc(Oc2ncccc2Br)cc1)c1nc2ccc(F)cc2[nH]1`, the 50% inhibitory concentration (IC50) – broadly, the concentration that inhibits the measured activity by half – was determined as 74.6 nM.
With `c1cnc(Oc2ccc(Nc3nc4ccccc4s3)cc2)c(-c2ccncn2)c1`, the IC50 came out at 22.4 nM.
The compound `c1ccc(-n2ncc3cc(Oc4ncccc4C4CCCCC4)ccc32)nc1` showed an IC50 of 417 nM.
As for `OC(c1ccc(Oc2ncccc2C2CCOCC2)cc1)c1nc2ccccc2[nH]1` (stereo not given), the IC50 was found to be 45.7 nM.
For the compound `N#Cc1ccc2[nH]c(Nc3ccc(Oc4ncccc4C(F)(F)F)cc3)nc2c1`, the concentration for half-maximal inhibition (IC50) worked out at 112 nM. Compared with the last compound, the IC50 is about 2.5-fold higher.
`O[C@H]1CC[C@@H](c2cccnc2Oc2ccc(Nc3nc4ccccc4s3)cc2)CC1` returned an IC50 of 1.63 nM.
With `Cn1c(C(=O)c2ccc(Oc3ncccc3C3CCOCC3)cc2)nc2ccccc21` the figure was 0.509 nM; with `C[C@]1(O)CC[C@H](c2cccnc2Oc2ccc(C(=O)c3nc4ccccc4[nH]3)cc2)CC1`, 1.42 nM; with `O=C(c1ccc(Oc2ncccc2[C@@H]2CC[C@@H](CO)C2)cc1)c1nc2ccccc2[nH]1`, 0.315 nM.
As for `C[C@]1(O)CC[C@@H](c2cccnc2Oc2ccc(Nc3nc4ccccc4s3)cc2)CC1`, the IC50 worked out at 12.6 nM.
With `C[C@]1(O)CCC[C@H](c2cccnc2Oc2ccc(Nc3nc4ccccc4s3)cc2)C1` the figure was 6.87 nM; with `O[C@H]1CC[C@H](c2cccnc2Oc2ccc(Nc3nc4ccccc4s3)cc2)C1`, 1.21 nM.
With `O[C@H]1CC[C@H](c2cccnc2Oc2ccc(Nc3nc4ccccc4s3)cc2)CC1` the figure was 6.38 nM; with `O=C(c1ccc(Oc2ncccc2Br)cc1)c1nc2ccccc2[nH]1`, 44.7 nM; with `Cc1ccc(-c2cccnc2Oc2ccc(C(=O)c3nc4ccccc4[nH]3)cc2)cn1`, 0.177 nM.
With `Fc1ccc(Cn2c(Nc3ccc(Oc4ncccc4C4CCOCC4)cc3)nc3ccccc32)cc1` the figure was 9.12 nM; with `CC(=O)N1CCCC[C@@H]1c1cccnc1Oc1ccc(C(=O)c2nc3ccccc3[nH]2)cc1`, 0.0645 nM.
The compound `COc1cncc(-c2cccnc2Oc2ccc(C(=O)c3nc4ccccc4[nH]3)cc2)c1` displayed an IC50 of 0.622 nM. Compared with the last compound, the IC50 is about 9.6-fold higher.
With `O[C@H]1CCC[C@H](c2cccnc2Oc2ccc(Nc3nc4ccccc4s3)cc2)C1` the figure was 9.93 nM; with `O=C(c1ccc(Oc2ncccc2-c2ncnc3nc[nH]c23)cc1)c1nc2ccccc2[nH]1`, 32.7 nM.
Consider `c1cnc(Oc2ccc(Nc3nc4ccccc4s3)cc2)c([C@H]2CCCO2)c1`, for which the IC50 was 54.2 nM.
With `O=C(c1ccc(Oc2ncccc2N2CCCC2)cc1)c1nc2ccccc2[nH]1` the figure was 14 nM.
`O=C(c1ccc(Oc2ncccc2C(=O)NCCc2ccccn2)cc1)c1nc2ccccc2[nH]1`: the concentration for half-maximal inhibition (IC50) was found to be 1.74 nM. Against the preceding compound, the IC50 is about 8-fold lower.
With `c1cnc(Oc2ccc(Nc3nc4ccccc4s3)cc2)c(-c2cccc3ncccc23)c1` the figure was 6.91 nM; with `COc1cnccc1-c1cccnc1Oc1ccc(C(=O)c2nc3ccccc3n2C)cc1`, 0.121 nM; with `Cc1cc(-c2cccnc2Oc2ccc(C(=O)c3nc4ccccc4n3C)cc2)ccn1`, 6.17 nM.
With `O=C(c1ccc(Oc2ncccc2N2CCOCC2)cc1)c1nc2ccccc2s1` the figure was 98.8 nM; with `C[C@@H](Cc1ccccn1)NC(=O)c1cccnc1Oc1ccc(C(=O)c2nc3ccccc3[nH]2)cc1`, 0.971 nM and 0.541 nM.
With `O=C(c1ccc(Oc2ncccc2-c2ccncn2)cc1)c1nc2ccccc2[nH]1` the figure was 7.45 nM; with `COc1ccncc1-c1cccnc1Oc1ccc(Nc2nc3ccccc3s2)cc1`, 0.902 nM.
`O=C1C=C(c2cccnc2Oc2ccc(Nc3nc4ccccc4s3)cc2)CC1` showed an IC50 of 2.84 nM.
With `O=C(c1ccc(Oc2ncccc2-c2ccnc(Cl)c2)cc1)c1nc2ccccc2[nH]1` the figure was 1.63 nM.
Regarding `C[C@H](Cc1ccc(F)cc1)NC(=O)c1cccnc1Oc1ccc(C(=O)c2nc3ccccc3[nH]2)cc1`, the IC50 is 0.135 nM. This IC50 is about 12-fold lower than that of the compound before.
With `O=C(c1ccc(Oc2ncccc2[C@H]2CCC[C@H](O)C2)cc1)c1nc2ccccc2[nH]1` the figure was 1.71 nM.
For the compound `O[C@@H]1CC[C@H](c2cccnc2Oc2ccc(Nc3nc4ccccc4s3)cc2)C1`, the IC50 stood at 2.64 nM. Compared with the last compound, the IC50 is about 1.5-fold higher.
`O=C(c1ccc(Oc2ncccc2C(=O)NCCc2ccccc2)cc1)c1nc2ccccc2[nH]1`: the IC50 came out at 2.72 nM. The IC50 values of the last two compounds are within 1.5-fold of each other.
With `C1=C(c2cccnc2Oc2ccc(Nc3nc4ccccc4s3)cc2)CCOC1` the figure was 2.21 nM; with `COc1cnccc1-c1cccnc1Oc1ccc(C(=O)c2nc3ccccc3[nH]2)cc1`, 0.261 nM.
With `C1=CO[C@H](c2cccnc2Oc2ccc(Nc3nc4ccccc4s3)cc2)CC1` the figure was 22.3 nM; with `C[C@]1(O)CC[C@@H](c2cccnc2Oc2ccc(C(=O)c3nc4ccccc4[nH]3)cc2)CC1`, 1.63 nM; with `COc1cncc(-c2cccnc2Oc2ccc(Nc3nc4ccccc4s3)cc2)c1`, 4.08 nM.
With `O=C(c1ccc(Oc2ncccc2[C@H]2CC[C@@](O)(C(F)(F)F)C2)cc1)c1nc2ccccc2[nH]1`, the half-maximal inhibitory concentration (IC50) came to 0.728 nM. This IC50 is about 5.6-fold lower than that of the compound before.
`CC(=O)N1CCC(c2cccnc2Oc2ccc(Nc3nc4ccccc4s3)cc2)CC1` registered an IC50 of 0.175 nM.
With `Cn1c(C(=O)c2ccc(Oc3ncccc3C3(F)CCOCC3)cc2)nc2ccccc21` the figure was 0.749 nM; with `O=C(c1ccc(Oc2ncccc2[C@H]2CC[C@@H](CO)C2)cc1)c1nc2ccccc2[nH]1`, 0.212 nM.
With `FC(F)(c1ccc(Oc2ncccc2C2CCOCC2)cc1)c1nc2ccccc2[nH]1` the figure was 11.6 nM; with `COc1ccc(-c2cccnc2Oc2ccc(Nc3nc4ccccc4s3)cc2)cn1`, 23.7 nM.
With `Cc1cc(-c2cccnc2Oc2ccc(C(=O)c3nc4ccccc4[nH]3)cc2)ccn1` the figure was 0.76 nM; with `O[C@H]1CCC[C@@H](c2cccnc2Oc2ccc(Nc3nc4ccccc4s3)cc2)C1`, 3.75 nM.
In the case of `CC(=O)N1CCC[C@@H](c2cccnc2Oc2ccc(Nc3nc4ccccc4s3)cc2)C1`, the IC50 amounted to 0.268 nM.
Regarding `O=C(c1ccc(Oc2ncccc2C2(F)CCOCC2)cc1)c1nc2ccccc2[nH]1`, the IC50 was 0.311 nM.
For the compound `C[C@]1(O)CC[C@H](c2cccnc2Oc2ccc(Nc3nc4ccccc4s3)cc2)CC1`, the IC50 was 4.51 nM.
With `O=C(c1ccc(Oc2ncccc2C2CCOC2)cc1)c1nc2ccccc2n1CCF` (stereo not given) the figure was 2.29 nM; with `Cc1cc(-c2cccnc2Oc2ccc(Nc3nc4ccccc4s3)cc2)ccn1`, 5 nM.
`CC(=O)N1CCC(c2cccnc2Oc2ccc(C(=O)c3nc4ccccc4n3C)cc2)CC1` showed a half-maximal inhibitory concentration (IC50) of 1.06 nM.
With `COc1ccc(-c2cccnc2Oc2ccc(C(=O)c3nc4ccccc4[nH]3)cc2)c(OC)n1` the figure was 0.694 nM; with `CN(c1ccc(Oc2ncccc2-c2cccnc2)cc1)c1nc2ccccc2s1`, 15.2 nM; with `O=C(c1ccc(Oc2ncccc2[C@H]2CC[C@H](O)CC2)cc1)c1nc2ccccc2[nH]1`, 0.101 nM.
With `COc1ncccc1-c1cccnc1Oc1ccc(Nc2nc3ccccc3s2)cc1` the figure was 2.54 nM.
As for `COc1cccnc1-c1cccnc1Oc1ccc(Nc2nc3ccccc3s2)cc1`, the IC50 stood at 232 nM.
With `CC(=O)N1CC=C(c2cncnc2Oc2ccc(C(=O)c3nc4ccccc4[nH]3)cc2)CC1` the figure was 1.56 nM; with `COc1ccc(-c2cccnc2Oc2ccc(C(=O)c3nc4ccccc4[nH]3)cc2)cn1`, 1.27 nM; with `C[C@]1(O)CC[C@@H](c2cccnc2Oc2ccc(C(=O)c3nc4ccccc4[nH]3)cc2)C1`, 0.763 nM.
With `O=C(c1ccc(Oc2ncccc2C(=O)NC2(Cc3ccccc3)CC2)cc1)c1nc2ccccc2[nH]1` the figure was 0.168 nM.
In the case of `O=C(c1ccc(Oc2ncccc2C(=O)N[C@@H](CO)Cc2ccccc2)cc1)c1nc2ccccc2[nH]1`, the IC50 worked out at 12.8 nM. This IC50 lies about 76-fold higher than the previous one.
For `C[C@]1(O)CC[C@H](c2cccnc2Oc2ccc(Nc3nc4ccccc4s3)cc2)C1`, the IC50 was found to be 2.31 nM.
With `O=C(c1ccc(Oc2ncccc2C2CCOCC2)cc1)c1nc2ncccc2[nH]1` the figure was 1.34 nM; with `C[C@@]1(O)CC[C@@H](c2cccnc2Oc2ccc(Nc3nc4ccccc4s3)cc2)C1`, 10.7 nM; with `O=C1CCCC(c2cccnc2Oc2ccc(C(=O)c3nc4ccccc4[nH]3)cc2)CC1` (stereo not given), 0.077 nM.
With `C[C@H](Cc1ccccn1)NC(=O)c1cccnc1Oc1ccc(C(=O)c2nc3ccccc3[nH]2)cc1` the figure was 6.83 nM; with `Cc1ccc(-c2cccnc2Oc2ccc(Nc3nc4ccccc4s3)cc2)cn1`, 0.219 nM.
In turn, `CC(C)(CNC(=O)c1cccnc1Oc1ccc(C(=O)c2nc3ccccc3[nH]2)cc1)c1ccccn1` gave an IC50 of 1.48 nM.
With `COC[C@H](Cc1ccccc1)NC(=O)c1cccnc1Oc1ccc(C(=O)c2nc3ccccc3[nH]2)cc1` the figure was 1.64 nM; with `COc1ccnc(-c2cccnc2Oc2ccc(C(=O)c3nc4ccccc4[nH]3)cc2)c1`, 4.11 nM.
With `O=C(c1ccc(Oc2ncccc2[C@@H]2CC[C@H](O)C2)cc1)c1nc2ccccc2[nH]1` the figure was 0.675 nM; with `COc1nc2ccccc2cc1-c1cccnc1Oc1ccc(C(=O)c2nc3ccccc3[nH]2)cc1`, 419 nM; with `OC(c1ccc(Oc2ncccc2C2=CCOCC2)cc1)c1nc2ccccc2s1` (stereo not given), 516 nM.
With `CC(=O)N1CCC(c2cccnc2Oc2ccc([C@H](O)c3nc4ccccc4[nH]3)cc2)CC1` the figure was 4.2 nM; with `O=C(c1ccc(Oc2ncccc2-c2cccnc2)cc1)c1nc2ccccc2s1`, 32 nM; with `C[C@@]1(O)CCC[C@@H](c2cccnc2Oc2ccc(Nc3nc4ccccc4s3)cc2)C1`, 3.66 nM.
The compound `C[C@]1(O)CC[C@H](c2cccnc2Oc2ccc(C(=O)c3nc4ccccc4[nH]3)cc2)C1` came in with an IC50 of 0.662 nM.
With `O=C(c1ccc(Oc2ncccc2[C@@H]2CC[C@](O)(C(F)(F)F)C2)cc1)c1nc2ccccc2[nH]1`, the IC50 is 1.59 nM.
With `CC(=O)N1CC=C(c2cccnc2Oc2ccc(Nc3nc4ccccc4s3)cc2)CC1` the figure was 0.363 nM.
With `O=C(c1ccc(Oc2ncccc2C(=O)N[C@H](CO)Cc2ccc(O)cc2)cc1)c1nc2ccccc2[nH]1` the figure was 3.65 nM; with `COc1cnccc1-c1cccnc1Oc1ccc(Nc2nc3ccccc3s2)cc1`, 0.747 nM.
